# Laboratory results as given in US20030166721A1, “Choline derivative for the treatment of alzheimer's disease” (priority 2000, published 2003).
# Legend:
# [1] = system: Wistar rats; assay: Behavioural and EEG effects in rats at different doses; assay type: in vivo, rat
# Method: Young male Wistar rats (200-260) were used in the experiments, housed in a standard temperature and humidity conditions, with food and water ad libitum.
# The animals, anaesthetised with chloral hydrate (400 mg/kg) […], were stereotaxically implanted (Kopft Instruments) with cortical electrodes (n=4) onto the fronto-parietal region of the neocortex on both cerebral hemispheres, to record EEG. After surgery all animals were housed 48 h to allow a complete recovery.
# 48 Hours after electrode implantation, the animals, placed in a transparent box and freely moving, were connected with an electroencephalograph and the electrocortical activity was continuously monitored and recorded. After a 30 min control time, the compounds under test were intraperitoneally administered and EEG recording was continued for 90-120 min
# EEG was recorded by computerised 24-channels apparatus (Vega 24, Galileo type, ESA-OTE Biomedica, Florence, Italy), while the spectrum activity was quantitatively analysed by a Berg Fourier analyser (ESA-OTE Biomedica, Florence, Italy). The total EEG power (0.25-16 Hz range) was divided into 5 variable frequency bands: δ 0.25-3 Hz, θ 3-6; α1 6-9; α2 9-12 and β12-16 Hz.
# The EEG patterns and behavioral effects observed in the rat after administration of the choline derivatives and of the vehicle is reported in 5 Tab. 3. Such effects can be ascribed to the changes of EEG spectrum total power. An […] in EEG total power is related with the presence of slow frequency waves (synchronisation), whereas an […] thereof is related with the presence of rapid frequency waves (desynchronisation).
# [2] = system: Wistar rats; assay: EEG spectral qualitative and quantitative analysis in freely moving rats after i.p. administration; assay type: in vivo, rat; settings: for EEG frequency band 0.25-3 Hz / EEG frequency band 3-6 Hz / EEG frequency band 6-9 Hz / EEG frequency band 9-12 Hz / EEG frequency band 12-16 Hz: after i.p. administration, % ± SEM; for Effect of atropine given 15 min before the compound: atropine pretreatment; for EEG total power (fronto-parietal cortex), Baseline: before i.p. injection (vol. 0.5 ml); for EEG total power (fronto-parietal cortex), Baseline / EEG total power (fronto-parietal cortex), 15′ / EEG total power (fronto-parietal cortex), 30′ / EEG total power (fronto-parietal cortex), 45′ / EEG total power (fronto-parietal cortex), 60′ / EEG total power (fronto-parietal cortex), 75′ / EEG total power (fronto-parietal cortex), 90′: mean ± SEM, 7 tests; for EEG total power (fronto-parietal cortex), 15′ / EEG total power (fronto-parietal cortex), 30′ / EEG total power (fronto-parietal cortex), 45′ / EEG total power (fronto-parietal cortex), 60′ / EEG total power (fronto-parietal cortex), 75′ / EEG total power (fronto-parietal cortex), 90′: i.p. (vol. 0.5 ml)
# Method: Young male Wistar rats (200-260) were used in the experiments, housed in a standard temperature and humidity conditions, with food and water ad libitum. […] After surgery all animals were housed 48 h to allow a complete recovery. 48 Hours after electrode implantation, the animals, placed in a transparent box and freely moving, were connected with an electroencephalograph and the electrocortical activity was continuously monitored and recorded. […] Qualitative and quantitative analysis on the electrocortical activity EEG recording was subsequently carried out. The animals were divided in 4 groups, the first group acted as the control, the second received cytidine-5′-diphosphocholine (CDP-choline), the third and fourth received PC-1 and PC-2, respectively (pivaloylcholine iodide and pivaloyleholine trimethylacetate, respectively). The control group received an equal volume of saline solution by the same procedure. […] Statistical analysis was performed by analysis of variance (ANOVA) for multiple measurements followed, if significant, by the post-hoc Tuckey-Kramer test. A comparison between groups was performed to exclude any individual variability.
# [3] = target: T1, Choline Specific Transport System (HUCT) (Rattus norvegicus, UniProt Q9JMD7); assay: EEG after ICV Hemicholinium-3 (choline uptake blocker) pretreatment; assay type: in vivo; settings: rats, ICV 1 μg-0.1 ng
# T1 construct: from tissue; host or cells: brain of living Wistar rats (in vivo, ICV microinfusion, EEG read-out)
# T1 sequence (Q9JMD7 1-580): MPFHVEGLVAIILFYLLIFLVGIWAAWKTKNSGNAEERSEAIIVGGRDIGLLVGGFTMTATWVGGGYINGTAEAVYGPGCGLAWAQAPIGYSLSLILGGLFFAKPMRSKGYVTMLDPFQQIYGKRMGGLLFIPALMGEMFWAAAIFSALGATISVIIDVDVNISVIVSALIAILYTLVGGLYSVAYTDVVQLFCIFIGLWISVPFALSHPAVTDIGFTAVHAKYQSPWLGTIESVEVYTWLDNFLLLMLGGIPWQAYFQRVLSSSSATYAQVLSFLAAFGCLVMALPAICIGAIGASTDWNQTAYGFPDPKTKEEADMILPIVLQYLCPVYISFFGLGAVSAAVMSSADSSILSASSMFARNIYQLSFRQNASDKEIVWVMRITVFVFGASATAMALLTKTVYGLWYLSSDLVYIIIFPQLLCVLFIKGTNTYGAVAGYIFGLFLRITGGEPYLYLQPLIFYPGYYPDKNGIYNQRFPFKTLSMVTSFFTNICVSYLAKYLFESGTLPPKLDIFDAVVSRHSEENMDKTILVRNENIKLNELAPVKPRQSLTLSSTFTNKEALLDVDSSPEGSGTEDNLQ
# Method: FIG. 4B—Effect on EEG spectrum power after treatment with PC-1 (5 mg i.p.) administered 15 min after microinfusion of Hch3 (0.1 ng/0.5 μl) in the III ventricule. As in FIG. 4a, time (min) is reported in abscissa, the EEG spectrum power expressed as μV^2/s is reported in ordinate. Graphics report the EEG spectrum total power (0.25-16 Hz).
# [4] = system: rats; assay: Synergistic effect with tacrine: qEEG of neocortical activity in rats; assay type: in vivo, rat; settings: n=7; for EEG power (qEEG of neocortical activity), 15″ / EEG power (qEEG of neocortical activity), 30″ / EEG power (qEEG of neocortical activity), 45″ / EEG power (qEEG of neocortical activity), 60″ / EEG power (qEEG of neocortical activity), 75″ / EEG power (qEEG of neocortical activity), 90″ / EEG power (qEEG of neocortical activity), 105″ / EEG power (qEEG of neocortical activity), 120″ / EEG power (qEEG of neocortical activity), 135″: rats i.p., PC-1/PC-2 15 μmol/2 ml/kg, THA 5 mg/kg 30 min before, atropine 0.1 mg/kg 15 min before; for EEG power (qEEG of neocortical activity), Baseline: before i.p. treatment
# Method: Results reported in Table 5 show the synergistic effect of the combination of tacrine with the choline derivatives of the present invention.
# Vehicle: 2 ml/Kg; all drugs were administered i.p., PC-1 and PC-2 at corresponding equimolar doses (15 μmol/2 ml/kg^−1); THA (tacrine) (5 mg/kg) was administered 30 min before compounds; atropine (0.1 mg/kg) was injected 15 min before PC-1 and PC-2. The number of animals was 7 per each group. Values represent EEG power (μV/s).
Compound,Behaviour ([1]; 5 mg),EEG Activity (change of EEG total power) ([1]; 5 mg),Behaviour ([1]; 50 mg),EEG Activity (change of EEG total power) ([1]; 50 mg),Time to onset of EEG desynchronization and significant decrease in EEG total power ([2]; 5 mg i.p.) [min],EEG frequency band 0.25-3 Hz [2],EEG frequency band 3-6 Hz [2],EEG frequency band 6-9 Hz [2] [%],EEG frequency band 9-12 Hz [2] [%],EEG frequency band 12-16 Hz [2],Effect of atropine given 15 min before the compound [2],"EEG total power (fronto-parietal cortex), Baseline [2]","EEG total power (fronto-parietal cortex), 15′ [2]","EEG total power (fronto-parietal cortex), 30′ [2]","EEG total power (fronto-parietal cortex), 45′ [2]","EEG total power (fronto-parietal cortex), 60′ [2]","EEG total power (fronto-parietal cortex), 75′ [2]","EEG total power (fronto-parietal cortex), 90′ [2]","EEG power (qEEG of neocortical activity), 15″ [4] [μV/s]","EEG power (qEEG of neocortical activity), 30″ [4] [μV/s]",also measured
"C[N+](C)(C)CCOP(=O)(O)OP(=O)([O-])OC[C@H]1O[C@@H](n2ccc(N)nc2=O)[C@H](O)[C@@H]1O [CDP-choline, cytidine-5′-diphosphocholine, reference compound]",Alert response,Decrease,Sedation,No effects,60,3.8 ± 1.3(*) %,19.2 ± 1.5(*) %,31.5 ± 0.9,18.5 ± 1.7,20.5 ± 1.3%,antagonize the effects,98 ± 3.6,93 ± 2.9,271 ± 3.2,89 ± 2.9,65 ± 2(*),95 ± 3.3,103 ± 2.6,–,–,Behaviour ([1]; 1 mg): No effects; EEG Activity (change of EEG total power) ([1]; 1 mg): No effects; Behaviour ([1]; 25 mg): Sedation; EEG Activity (change of EEG total power) ([1]; 25 mg): Increase
"C[N+]1(C)CCOC(O)(c2ccc(-c3ccc(C4(O)C[N+](C)(C)CCO4)cc3)cc2)C1.[Br-].[Br-] (centres unmarked) [Hch3, Hemicholinium-3, reference compound]",–,–,–,–,–,–,–,–,–,–,–,–,–,–,–,–,–,–,–,–,"Behavioural and EEG effect of ICV administration [3]: behavioural sedation and sleep, EEG synchronization and increase in EEG total power"
"Nc1c2c(nc3ccccc13)CCCC2 [THA, tacrine, reference compound]",–,–,–,–,–,–,–,–,–,–,–,–,–,–,–,–,–,–,72.5,68,"EEG power (qEEG of neocortical activity), 45″ [4]: 75.5 μV/s; EEG power (qEEG of neocortical activity), 60″ [4]: 97.5 μV/s; EEG power (qEEG of neocortical activity), 75″ [4]: 122 μV/s; EEG power (qEEG of neocortical activity), 90″ [4]: 129.5 μV/s; EEG power (qEEG of neocortical activity), 105″ [4]: 135 μV/s; EEG power (qEEG of neocortical activity), 120″ [4]: 137 μV/s; EEG power (qEEG of neocortical activity), 135″ [4]: 119.5 μV/s; EEG power (qEEG of neocortical activity), Baseline ([4]; rats): 118 μV/s"
pivaloylcholine trimethylacetate [PC-2],Alert response,Decrease,Convulsions and death (50%),Peaks,≤ 15,2.4 ± 1.3(**) %,21.3 ± 0.9%,22.3 ± 1.3,13.5 ± 0.7,22.5 ± 1.6(*) %,antagonize the effects,93 ± 3.5,50 ± 1.9(**),55 ± 2.5(*),90 ± 3.3,132 ± 1.5(*),96 ± 2.7,90 ± 3.6,58.5,64.5,"Change of slow EEG spectrum components (FIG. 3) [2]: decrease in slow components (delta and theta) of the spectrum; Duration of the decrease in EEG total power ([2]; 5 mg i.p.): about 30 min; EEG 60 min after administration ([2]; 5 mg i.p., 60 min): rapid frequency activity (about 16 Hz) and significant increase (P<0.01) in EcoG total power; EEG power (qEEG of neocortical activity), 45″ [4]: 98 μV/s; EEG power (qEEG of neocortical activity), 60″ [4]: 103 μV/s; EEG power (qEEG of neocortical activity), 75″ [4]: 97.5 μV/s; EEG power (qEEG of neocortical activity), 90″ [4]: 110.3 μV/s; EEG power (qEEG of neocortical activity), 105″ [4]: 124 μV/s; EEG power (qEEG of neocortical activity), 120″ [4]: 120.5 μV/s; EEG power (qEEG of neocortical activity), 135″ [4]: 117.5 μV/s; EEG effect with tacrine given 30 min before ([4]; rats, THA 5 mg/Kg i.p. 30 min before 15 μmol i.p.): long-lasting EEG desynchronization and significant decrease in EEG spectrum total power; EEG power (qEEG of neocortical activity), Baseline ([4]; rats): 105 μV/s"
